Source: patent publication WO2020032435A1 (priority 2018, dated 2019)

How the values were obtained:
IGF-1 = IGF-1 concentration in culture medium of human dermal papilla cells, ELISA; type: cell-based; settings: Human dermal papilla cell, 24 hours, DMSO negative control, read-out: increase in IGF-1 concentration
VEGF [1] = assay: VEGF mRNA expression in human dermal papilla cells, RT-PCR; type: cell-based; settings: Human dermal papilla cell, 24 hours, read-out: increase in mRNA expression of VEGF
IGF = assay: IGF-1 mRNA expression in human dermal papilla cells, RT-PCR; type: cell-based; settings: Human dermal papilla cell, 24 hours, read-out: increase in mRNA expression of IGF
cAMP = cAMP concentration in human dermal papilla cells, ELISA; type: cell-based; settings: Human dermal papilla cell, 24 hours, DMSO negative control, read-out: increase in cAMP concentration
cycD = assay: Cyclin D mRNA expression in human dermal papilla cells, RT-PCR; type: cell-based; settings: Human dermal papilla cell, 24 hours, read-out: increase in mRNA expression of cycD
VEGF [2] = assay: VEGF concentration in culture medium of human dermal papilla cells, ELISA; type: cell-based; settings: Human dermal papilla cell, 24 hours, DMSO negative control, read-out: increase in VEGF concentration
[3] = test system: human dermal papilla cells; assay: Cell proliferation of human dermal papilla cells, MTT assay; settings: 24 h, read-out: proliferation rate increase
LEF = LEF mRNA expression in human dermal papilla cells, RT-PCR; type: cell-based; settings: Human dermal papilla cell, 24 hours, read-out: increase in mRNA expression of LEF

COc1ccc2ccccc2c1 [Yarayara, 2-methoxynaphthalene]
activation at 20 µM (IGF-1): 22% | activation at 20 µM (VEGF [1]): 274% | activation at 20 µM (IGF): 270% | activation at 20 µM (cAMP): 47% | activation at 20 µM (cycD): 262% | activation at 20 µM (VEGF [2]): 30% | activation at 10 µM [3]: 10.6% | activation at 20 µM [3]: 37% | activation at 50 µM [3]: 28% | activation at 20 µM (LEF): 340%
